Experimental data: US20090304692A1, “TRIAZINE COMPOUNDS AS PI3 KINASE AND MTOR INHIBITORS” (Wyeth, priority 2008, published 2009)
Values joined by “and” are separate entries in the source; they are usually repeats but may differ in a detail not shown here. Equal entries are not always repeated. Where two headings read alike, the source gives them in different places.

Key:
[1] = tested on: human prostate LNCap tumor cell line; experiment: In vitro cell culture growth assay (MTS), LNCap; conditions: Homo sapiens, LNCaP, 72 h, read-out: IC50 LNCap
Human mTOR (FLAG-TOR) = Human mTOR (FLAG-TOR) (Homo sapiens, UniProt P42345); experiment: mTOR kinase assay (DELFIA format, purified enzyme); assay type: biochemical; conditions: read-out: IC50 mTOR
Sequence of Human mTOR (FLAG-TOR) (P42345 1360-2549 limits assumed): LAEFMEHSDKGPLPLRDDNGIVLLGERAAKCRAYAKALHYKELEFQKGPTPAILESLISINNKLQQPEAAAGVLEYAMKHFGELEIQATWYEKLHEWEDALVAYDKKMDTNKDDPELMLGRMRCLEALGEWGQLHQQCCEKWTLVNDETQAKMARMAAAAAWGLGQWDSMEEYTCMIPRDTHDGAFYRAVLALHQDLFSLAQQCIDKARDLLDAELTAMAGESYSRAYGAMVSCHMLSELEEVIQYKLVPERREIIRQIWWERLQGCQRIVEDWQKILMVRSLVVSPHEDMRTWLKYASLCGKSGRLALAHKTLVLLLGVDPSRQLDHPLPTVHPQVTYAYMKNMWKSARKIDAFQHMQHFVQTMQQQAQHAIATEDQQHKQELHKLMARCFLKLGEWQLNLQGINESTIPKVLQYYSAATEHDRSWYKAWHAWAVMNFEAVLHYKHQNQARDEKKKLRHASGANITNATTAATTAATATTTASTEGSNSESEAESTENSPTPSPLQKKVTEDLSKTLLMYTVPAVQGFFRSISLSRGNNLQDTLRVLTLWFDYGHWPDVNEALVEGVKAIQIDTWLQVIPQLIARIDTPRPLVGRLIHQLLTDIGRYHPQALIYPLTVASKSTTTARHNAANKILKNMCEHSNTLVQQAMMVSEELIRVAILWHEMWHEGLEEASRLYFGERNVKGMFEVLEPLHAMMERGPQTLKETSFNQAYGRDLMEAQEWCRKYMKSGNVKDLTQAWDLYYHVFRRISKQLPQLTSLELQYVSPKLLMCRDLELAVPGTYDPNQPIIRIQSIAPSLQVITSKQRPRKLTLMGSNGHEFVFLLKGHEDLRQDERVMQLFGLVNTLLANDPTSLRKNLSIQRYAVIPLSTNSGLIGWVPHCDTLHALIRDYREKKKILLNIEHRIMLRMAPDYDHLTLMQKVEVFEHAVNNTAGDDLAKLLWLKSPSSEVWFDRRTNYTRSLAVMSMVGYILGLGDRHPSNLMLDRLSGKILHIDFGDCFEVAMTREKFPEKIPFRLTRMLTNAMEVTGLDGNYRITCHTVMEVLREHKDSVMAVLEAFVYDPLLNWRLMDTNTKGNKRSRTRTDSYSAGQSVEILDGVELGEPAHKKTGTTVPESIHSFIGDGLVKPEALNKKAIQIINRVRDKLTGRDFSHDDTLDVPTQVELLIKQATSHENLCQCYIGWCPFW

PI3K-α = PI3K-α (Homo sapiens, UniProt P42336); experiment: PI3K-alpha fluorescence polarization assay; conditions: read-out: IC50 PI3Kα
Sequence of PI3K-α (P42336 whole entry, species assumed): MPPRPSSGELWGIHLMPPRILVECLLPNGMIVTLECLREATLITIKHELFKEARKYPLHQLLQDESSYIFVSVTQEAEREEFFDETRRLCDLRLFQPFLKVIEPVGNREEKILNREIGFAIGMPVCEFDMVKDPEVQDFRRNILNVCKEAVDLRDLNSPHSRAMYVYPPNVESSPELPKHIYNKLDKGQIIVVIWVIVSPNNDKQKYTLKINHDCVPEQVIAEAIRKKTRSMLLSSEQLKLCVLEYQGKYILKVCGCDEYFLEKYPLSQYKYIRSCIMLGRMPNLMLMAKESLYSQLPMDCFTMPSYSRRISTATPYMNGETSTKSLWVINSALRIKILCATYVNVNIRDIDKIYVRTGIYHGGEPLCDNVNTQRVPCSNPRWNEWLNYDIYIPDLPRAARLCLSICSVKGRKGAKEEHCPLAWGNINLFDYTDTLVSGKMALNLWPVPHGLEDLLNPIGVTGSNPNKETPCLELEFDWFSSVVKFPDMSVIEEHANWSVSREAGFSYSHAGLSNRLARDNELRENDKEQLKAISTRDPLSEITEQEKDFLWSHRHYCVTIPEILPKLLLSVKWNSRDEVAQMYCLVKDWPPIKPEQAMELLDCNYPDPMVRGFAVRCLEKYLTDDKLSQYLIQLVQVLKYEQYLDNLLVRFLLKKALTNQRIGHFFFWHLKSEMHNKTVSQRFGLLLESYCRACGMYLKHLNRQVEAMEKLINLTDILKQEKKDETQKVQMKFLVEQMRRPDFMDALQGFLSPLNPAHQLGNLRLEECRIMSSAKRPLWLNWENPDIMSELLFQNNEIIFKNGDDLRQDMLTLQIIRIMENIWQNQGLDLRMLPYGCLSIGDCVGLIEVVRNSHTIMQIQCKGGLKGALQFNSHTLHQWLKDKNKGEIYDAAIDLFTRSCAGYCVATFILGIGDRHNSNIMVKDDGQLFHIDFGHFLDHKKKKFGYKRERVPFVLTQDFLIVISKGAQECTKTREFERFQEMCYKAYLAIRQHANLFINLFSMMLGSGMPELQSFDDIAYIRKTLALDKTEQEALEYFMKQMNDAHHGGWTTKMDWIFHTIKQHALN
Sequence of PI3K-α (P27986 whole entry partner, species assumed): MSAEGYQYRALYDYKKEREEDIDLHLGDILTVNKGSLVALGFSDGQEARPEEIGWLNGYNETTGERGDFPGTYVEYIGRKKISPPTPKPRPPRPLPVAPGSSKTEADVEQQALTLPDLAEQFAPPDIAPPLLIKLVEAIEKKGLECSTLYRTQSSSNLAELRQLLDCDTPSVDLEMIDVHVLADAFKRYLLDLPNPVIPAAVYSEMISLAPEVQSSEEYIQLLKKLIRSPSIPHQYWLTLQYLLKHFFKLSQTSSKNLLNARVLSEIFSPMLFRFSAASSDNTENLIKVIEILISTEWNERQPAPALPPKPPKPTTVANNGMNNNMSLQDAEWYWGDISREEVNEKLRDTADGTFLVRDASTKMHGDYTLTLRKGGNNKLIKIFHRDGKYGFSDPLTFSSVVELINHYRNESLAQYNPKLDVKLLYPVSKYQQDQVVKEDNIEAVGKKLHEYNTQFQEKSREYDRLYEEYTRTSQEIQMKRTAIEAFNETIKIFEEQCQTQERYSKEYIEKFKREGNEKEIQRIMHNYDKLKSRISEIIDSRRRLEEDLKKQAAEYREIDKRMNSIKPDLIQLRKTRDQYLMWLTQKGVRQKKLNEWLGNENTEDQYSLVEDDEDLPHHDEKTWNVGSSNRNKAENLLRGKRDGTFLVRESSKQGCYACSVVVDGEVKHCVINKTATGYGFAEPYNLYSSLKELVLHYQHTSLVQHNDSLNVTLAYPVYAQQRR

PI3K-γ = PI3K-γ (Homo sapiens, UniProt P48736); experiment: PI3K-gamma fluorescence polarization assay
Sequence of PI3K-γ (P48736 whole entry, species assumed): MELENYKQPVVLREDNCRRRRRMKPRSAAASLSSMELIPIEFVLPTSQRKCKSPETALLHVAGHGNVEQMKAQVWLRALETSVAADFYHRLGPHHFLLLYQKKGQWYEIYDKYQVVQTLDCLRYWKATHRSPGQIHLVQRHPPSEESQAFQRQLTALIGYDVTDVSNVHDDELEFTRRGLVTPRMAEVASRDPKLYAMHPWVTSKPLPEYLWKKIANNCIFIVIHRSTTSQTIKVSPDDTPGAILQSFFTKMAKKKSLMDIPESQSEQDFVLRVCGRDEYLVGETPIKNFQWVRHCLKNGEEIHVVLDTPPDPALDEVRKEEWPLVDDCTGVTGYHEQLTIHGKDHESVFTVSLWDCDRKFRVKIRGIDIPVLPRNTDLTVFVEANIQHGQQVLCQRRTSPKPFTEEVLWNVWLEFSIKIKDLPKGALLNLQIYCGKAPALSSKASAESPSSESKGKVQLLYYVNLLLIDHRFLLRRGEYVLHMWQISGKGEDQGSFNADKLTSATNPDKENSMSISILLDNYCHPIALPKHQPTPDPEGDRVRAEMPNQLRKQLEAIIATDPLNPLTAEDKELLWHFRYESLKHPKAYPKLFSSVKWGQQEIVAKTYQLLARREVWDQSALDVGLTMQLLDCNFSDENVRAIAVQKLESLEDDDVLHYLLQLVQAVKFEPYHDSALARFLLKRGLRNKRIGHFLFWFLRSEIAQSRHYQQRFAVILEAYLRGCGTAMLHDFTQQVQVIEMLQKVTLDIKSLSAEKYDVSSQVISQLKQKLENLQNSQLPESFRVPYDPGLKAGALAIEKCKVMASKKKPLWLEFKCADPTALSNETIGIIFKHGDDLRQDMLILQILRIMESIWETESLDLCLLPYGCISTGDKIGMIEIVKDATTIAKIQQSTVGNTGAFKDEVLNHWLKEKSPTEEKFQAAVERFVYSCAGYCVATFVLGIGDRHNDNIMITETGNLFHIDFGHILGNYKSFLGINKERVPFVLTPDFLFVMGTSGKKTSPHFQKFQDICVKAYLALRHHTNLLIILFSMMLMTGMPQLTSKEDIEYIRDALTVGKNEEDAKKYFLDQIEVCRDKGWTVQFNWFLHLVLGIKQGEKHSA

Row | Compound | IC50 [1] [nM] | IC50 (Human mTOR (FLAG-TOR)) | IC50 (PI3K-α) [nM] | IC50 (PI3K-γ; read-out: IC50 PI3Kγ) [nM] | IC50 (PI3K-α; listed as 335) [nM] | IC50 (PI3K-γ; read-out: IC50 PI3Kγ, listed as 335) [nM] | IC50 (PI3K-α; listed as 354) [nM] | IC50 (PI3K-γ; read-out: IC50 PI3Kγ, listed as 354) [nM] | IC50 (PI3K-α; listed as 358) [nM] | IC50 (PI3K-γ; read-out: IC50 PI3Kγ, listed as 358) [nM] | IC50 (PI3K-γ) [nM]
1 | CN1CCN(c2ccc(Nc3nc(-c4ccc(NC(=O)NC5CC5)cc4)nc(N4CC5CCC(C4)O5)n3)cc2)CC1 [Example 316, 1-cyclopropyl-3-{4-[4-{[4-(4-methylpiperazin-1-yl)phenyl]amino}-6-(8-oxa-3-azabicyclo[3.2.1]oct-3-yl)-1,3,5-triazin-2-yl]phenyl}urea] | 320 | 71 nM and 11 nM | 1410 | 2690 |  |  |  |  |  |  | 
2 | CN1CCN(c2ccc(Nc3nc(-c4ccc(NC(=O)Nc5ccccc5)cc4)nc(N4CC5CCC(C4)O5)n3)cc2)CC1 [Example 319, 1-{4-[4-{[4-(4-methylpiperazin-1-yl)phenyl]amino}-6-(8-oxa-3-azabicyclo[3.2.1]oct-3-yl)-1,3,5-triazin-2-yl]phenyl}-3-phenylurea] | 220 | 4.4 nM and 4 nM | 80 | 1450 | 81 | 144 |  |  |  |  | 
3 | CNC(=O)Nc1ccc(-c2nc(Nc3ccc(N4CCNCC4)cc3)nc(N3CC4CCC(C3)O4)n2)cc1 [Example 325, 1-methyl-3-(4-{4-(8-oxa-3-azabicyclo[3.2.1]oct-3-yl)-6-[(4-piperazin-1-ylphenyl)amino]-1,3,5-triazin-2-yl}phenyl)urea] | 310 | 4.6 nM | 74 | 6240 |  |  | 69 | 6220 |  |  | 
4 | O=C(Nc1ccc(-c2nc(Nc3ccc(N4CCNCC4)cc3)nc(N3CC4CCC(C3)O4)n2)cc1)NC1CC1 [Example 326, 1-cyclopropyl-3-(4-{4-(8-oxa-3-azabicyclo[3.2.1]oct-3-yl)-6-[(4-piperazin-1-ylphenyl)amino]-1,3,5-triazin-2-yl}phenyl)urea] | 580 | 12.2 nM and 12 nM | 830 | 6190 |  |  |  |  |  |  | 
5 | O=C(NCCF)Nc1ccc(-c2nc(Nc3ccc(N4CCNCC4)cc3)nc(N3CC4CCC(C3)O4)n2)cc1 [Example 327, 1-(2-fluoroethyl)-3-(4-{4-(8-oxa-3-azabicyclo[3.2.1]oct-3-yl)-6-[(4-piperazin-1-ylphenyl)amino]-1,3,5-triazin-2-yl}phenyl)urea] | 400 | 6.3 nM | 394 | 5900 |  |  |  |  |  |  | 
6 | O=C(NCCO)Nc1ccc(-c2nc(Nc3ccc(N4CCNCC4)cc3)nc(N3CC4CCC(C3)O4)n2)cc1 [Example 328, 1-(2-hydroxyethyl)-3-(4-{4-(8-oxa-3-azabicyclo[3.2.1]oct-3-yl)-6-[(4-piperazin-1-ylphenyl)amino]-1,3,5-triazin-2-yl}phenyl)urea] | 1500 | 4.6 nM | 261 | 14000 |  |  |  |  |  |  | 
7 | NC(=O)c1ccc(NC(=O)Nc2ccc(-c3nc(Nc4ccc(N5CCNCC5)cc4)nc(N4CC5CCC(C4)O5)n3)cc2)cc1 [Example 329, 4-{[(4-{4-(8-oxa-3-azabicyclo[3.2.1]oct-3-yl)-6-[(4-piperazin-1-ylphenyl)amino]-1,3,5-triazin-2-yl}phenyl)carbamoyl]amino}benzamide] | 5900 | 0.68 nM | 9.5 | 385 |  |  |  |  | 9 | 363 | 
8 | O=C(Nc1ccccc1)Nc1ccc(-c2nc(Nc3ccc(N4CCNCC4)cc3)nc(N3CC4CCC(C3)O4)n2)cc1 [Example 330, 1-(4-{4-(8-oxa-3-azabicyclo[3.2.1]oct-3-yl)-6-[(4-piperazin-1-ylphenyl)amino]-1,3,5-triazin-2-yl}phenyl)-3-phenylurea] | 260 | 3.3 nM and 3.4 nM | 42 | 827 |  |  |  |  |  |  | 
9 | CN(C)CC(=O)Nc1ccc(NC(=O)Nc2ccc(-c3nc(N4CC5CCC(C4)O5)nc(N4CC5CCC(C4)O5)n3)cc2)cc1 [Example 352, N-[4-({[4-(4,6-di-8-oxa-3-azabicyclo[3.2.1]oct-3-yl-1,3,5-triazin-2-yl)phenyl]carbamoyl}amino)phenyl]-N2,N2-dimethylglycinnamide] | < 0.8 | 0.24 nM | 13.5 | 732 |  |  |  |  |  |  | 
10 | O=C(CN1CCCC1)Nc1ccc(NC(=O)Nc2ccc(-c3nc(N4CC5CCC(C4)O5)nc(N4CC5CCC(C4)O5)n3)cc2)cc1 [Example 353, N-[4-({[4-(4,6-di-8-oxa-3-azabicyclo[3.2.1]oct-3-yl-1,3,5-triazin-2-yl)phenyl]carbamoyl}amino)phenyl]-2-pyrrolidin-1-ylacetamide] | < 0.8 | 0.22 nM | 8.5 | 501 |  |  |  |  |  |  | 
11 | CCNC(=O)Nc1ccc(-c2nc(NC3CCNCC3)nc(N3C4CCC3COC4)n2)cc1 [Example 360, 1-(4-(4-(3-oxa-8-azabicyclo[3.2.1]octan-8-yl)-6-(piperidin-4-ylamino)-1,3,5-triazin-2-yl)phenyl)-3-ethylurea] | 10000 | 82 nM | 6670 |  |  |  |  |  |  |  | > 10000
12 | O=C(Nc1ccc(CN2CCNCC2)cc1)Nc1ccc(-c2nc(N3C4CCC3COC4)nc(N3C4CCC3COC4)n2)cc1 [Example 366, 1-(4-(4,6-di(3-oxa-8-azabicyclo[3.2.1]octan-8-yl)-1,3,5-triazin-2-yl)phenyl)-3-(4-(piperazin-1-ylmethyl)phenyl)urea] | 2.8 | 1.1 nM | 585 | 3000 |  |  |  |  |  |  | 
13 | NCc1ccc(NC(=O)Nc2ccc(-c3nc(N4C5CCC4COC5)nc(N4C5CCC4COC5)n3)cc2)cc1 [Example 368, 1-(4-(aminomethyl)phenyl)-3-(4-(4,6-di(3-oxa-8-azabicyclo[3.2.1]octan-8-yl)-1,3,5-triazin-2-yl)phenyl)urea] | 0.7 | 0.68 nM | 109 | 1940 |  |  |  |  |  |  | 
14 | O=C(Nc1ccc(CN2CCCC2)cc1)Nc1ccc(-c2nc(N3C4CCC3COC4)nc(N3C4CCC3COC4)n2)cc1 [Example 369, 1-(4-(4,6-di(3-oxa-8-azabicyclo[3.2.1]octan-8-yl)-1,3,5-triazin-2-yl)phenyl)-3-(4-(pyrrolidin-1-ylmethyl)phenyl)urea] | 3 | 1.3 nM | 362 | 2560 |  |  |  |  |  |  | 
15 | CN(C)CC(=O)Nc1ccc(NC(=O)Nc2ccc(-c3nc(N4C5CCC4COC5)nc(N4C5CCC4COC5)n3)cc2)cc1 [Example 373, N-(4-(3-(4-(4,6-di(3-oxa-8-azabicyclo[3.2.1]octan-8-yl)-1,3,5-triazin-2-yl)phenyl)ureido)phenyl)-2-(dimethylamino)acetamide] | 1 | 0.16 nM | 70 | 2960 |  |  |  |  |  |  | 
16 | CN1CCN(CC(=O)Nc2ccc(NC(=O)Nc3ccc(-c4nc(N5C6CCC5COC6)nc(N5C6CCC5COC6)n4)cc3)cc2)CC1 [Example 374, N-(4-(3-(4-(4,6-di(3-oxa-8-azabicyclo[3.2.1]octan-8-yl)-1,3,5-triazin-2-yl)phenyl)ureido)phenyl)-2-(4-methylpiperazin-1-yl)acetamide] | < 0.8 | 0.14 nM | 64 | 3920 |  |  |  |  |  |  | 
17 | O=C(CN1CCCC1)Nc1ccc(NC(=O)Nc2ccc(-c3nc(N4C5CCC4COC5)nc(N4C5CCC4COC5)n3)cc2)cc1 [Example 375, N-(4-(3-(4-(4,6-di(3-oxa-8-azabicyclo[3.2.1]octan-8-yl)-1,3,5-triazin-2-yl)phenyl)ureido)phenyl)-2-(pyrrolidin-1-yl)acetamide] | < 0.8 | 0.15 nM | 44 | 2590 |  |  |  |  |  |  | 
